Source: ChEMBL document CHEMBL1126573, “Non-peptide angiotensin II receptor antagonists. 1. Design, synthesis, and biological activity of N-substituted indoles and dihydroindoles” (J Med Chem, 1993)

What was measured:
[1] = target: T1, Type-2 angiotensin II receptor (Rattus norvegicus, UniProt P35351); assay: In vitro antagonist activity against angiotensin II receptor type 2 in rat midbrain using [125I]-Sar,Ile AII.; type: functional
T1 sequence (P35351 whole entry): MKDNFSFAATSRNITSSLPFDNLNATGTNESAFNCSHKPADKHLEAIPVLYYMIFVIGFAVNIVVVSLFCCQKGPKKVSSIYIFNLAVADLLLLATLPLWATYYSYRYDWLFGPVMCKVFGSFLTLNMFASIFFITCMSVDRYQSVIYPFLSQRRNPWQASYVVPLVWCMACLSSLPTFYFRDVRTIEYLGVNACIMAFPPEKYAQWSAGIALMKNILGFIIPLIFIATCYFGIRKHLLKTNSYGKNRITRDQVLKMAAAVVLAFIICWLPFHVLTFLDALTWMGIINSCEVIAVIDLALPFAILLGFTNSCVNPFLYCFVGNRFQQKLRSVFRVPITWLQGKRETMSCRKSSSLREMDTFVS

[2] = target: T2, Type-1 angiotensin II receptor (Oryctolagus cuniculus, UniProt P34976); assay: In vitro antagonist activity against angiotensin II receptor type 1 in rabbit aorta using [125I]-Sar, Ile AII.; type: functional, tissue-based
T2 sequence (P34976 whole entry): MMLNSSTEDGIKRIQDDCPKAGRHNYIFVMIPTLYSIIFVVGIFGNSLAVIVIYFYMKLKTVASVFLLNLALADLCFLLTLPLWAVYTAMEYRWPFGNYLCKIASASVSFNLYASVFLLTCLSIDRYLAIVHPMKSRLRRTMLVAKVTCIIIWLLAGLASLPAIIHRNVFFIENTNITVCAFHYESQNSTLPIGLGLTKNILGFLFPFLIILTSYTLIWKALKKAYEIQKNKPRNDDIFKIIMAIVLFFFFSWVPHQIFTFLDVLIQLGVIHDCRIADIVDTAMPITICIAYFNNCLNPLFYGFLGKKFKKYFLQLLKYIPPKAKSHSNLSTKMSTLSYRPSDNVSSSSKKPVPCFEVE

Row | SMILES | IC50 [1] [µM] | IC50 [2] [µM]
1 | CCc1nc2c(C)cc(C)nc2n1Cc1ccc2c(ccn2C(=O)c2ccccc2-c2nnn[nH]2)c1 | 0.13 | 0.005
2 | CCc1nc2c(C)cc(C)nc2n1Cc1ccc2c(c1)CCN2C(C#N)c1ccccc1 (stereo unspecified) | 11.5 | 0.35
3 | CCc1nc2c(C)cc(C)nc2n1Cc1ccc2c(ccn2C(=O)c2cc(Cl)c(Cl)cc2C(=O)O)c1 | 1.9 | 0.015
4 | CCc1nc2c(C)cc(C)nc2n1Cc1ccc2c(ccn2Cc2c(Cl)cccc2-c2nnn[nH]2)c1 | 12 | 0.001
5 | CCc1nc2c(C)cc(C)nc2n1Cc1ccc2c(ccn2C(=O)c2c(Cl)ccc(Cl)c2C(=O)O)c1 | 2.7 | 0.0008
6 | CCc1nc2c(C)cc(C)nc2n1Cc1ccc2c(ccn2Cc2ccccc2C(=O)OC)c1 | 21 | 0.62
7 | CCc1nc2c(C)cc(C)nc2n1Cc1ccc2c(c1)CCN2C(=O)c1cc(Cl)c(Cl)cc1C(=O)O | 1 | 0.17
8 | CCc1nc2c(C)cc(C)nc2n1Cc1ccc2c(ccn2Cc2ccccc2-c2nn[nH]n2)c1 | > 18 | 0.0087
9 | CCc1nc2c(C)cc(C)nc2n1Cc1ccc2c(ccn2Cc2c(Cl)cccc2C#N)c1 | > 30 | 0.12
10 | CCc1nc2c(C)cc(C)nc2n1Cc1ccc2c(c1)CCN2C(C(=O)OC)c1ccccc1 (stereo unspecified) | 16 | 0.17
11 | CCc1nc2c(C)cc(C)nc2n1Cc1ccc2c(c1)CCN2C(=O)c1ccccc1-c1nnn[nH]1 | > 10 | 0.78
12 | CCc1nc2c(C)cc(C)nc2n1Cc1ccc2c(c1)CCN2C(C#N)c1cccc(C)c1 (stereo unspecified) | 10.5 | 1.6
13 | CCc1nc2c(C)cc(C)nc2n1Cc1ccc2c(c1)CCN2C(=O)c1c(Cl)ccc(Cl)c1C(=O)O | 6.5 | 0.018
14 | CCc1nc2c(C)cc(C)nc2n1Cc1ccc2c(ccn2C(=O)c2ccccc2C#N)c1 | > 50 | 0.25
15 | CCc1nc2c(C)cc(C)nc2n1Cc1ccc2c(c1)CCN2C(C#N)c1ccc(C)cc1 (stereo unspecified) | 14 | 
16 | CCc1nc2c(C)cc(C)nc2n1Cc1ccc(-c2ccccc2-c2nnn[nH]2)cc1 [L-158809] | > 10 | 
17 | CCc1nc2c(C)cc(C)nc2n1Cc1ccc2c(ccn2C(=O)c2ccccc2)c1 | 8.9 | 0.24
18 | CCc1nc2c(C)cc(C)nc2n1Cc1ccc2c(ccn2Cc2ccccc2NC(=O)OC)c1 | > 30 | 
19 | CCc1nc2c(C)cc(C)nc2n1Cc1ccc2c(c1)CCN2C(C#N)c1ccccc1C (stereo unspecified) | 13 | 1.1
20 | CCc1nc2c(C)cc(C)nc2n1Cc1ccc2c(c1)CCN2C(=O)c1ccccc1C#N | 25 | 0.67
21 | CCc1nc2c(C)cc(C)nc2n1Cc1ccc2c(ccn2Cc2ccccc2C#N)c1 | > 30 | 0.32
22 | CCc1nc2c(C)cc(C)nc2n1Cc1ccc2c(ccn2Cc2ccccc2C(=O)O)c1 | > 30 | 
23 | CCc1nc2c(C)cc(C)nc2n1Cc1ccc2c(ccn2Cc2cccc([N+](=O)[O-])c2C(=O)O)c1 | 14 | 0.16
24 | CCc1nc2c(C)cc(C)nc2n1Cc1ccc2c(ccn2C(=O)c2ccccc2NC(=O)O)c1 | 17 | 0.092
25 | CCc1nc2c(C)cc(C)nc2n1Cc1ccc2c(c1)CCN2C(C(=O)O)c1ccccc1 (stereo unspecified) | 14 | 0.082
26 | CCc1nc2c(C)cc(C)nc2n1Cc1ccc2c(c1)CCN2C(c1ccccc1)c1nnn[nH]1 (stereo unspecified) | > 30 | 
27 | CCc1nc2c(C)cc(C)nc2n1Cc1ccc2c(c1)CCN2C(=O)c1ccccc1C(=O)O | 10 | 0.048
28 | CCc1nc2c(C)cc(C)nc2n1Cc1ccc2c(ccn2C(=O)c2ccccc2C(=O)O)c1 | 6.6 | 0.02
